The values that follow come from patent US5582837A, “Alkyl-substituted cellulose-based sustained-release oral drug dosage forms” (priority 1995, dated 1996).

This data set deals with isolated colon section. Conditions: rabbit, in vivo.

Each structure is given as a SMILES string.

Experimental: Each rabbit was anesthetized using an intramuscular injection of xylazine and ketamine, given at 5-8 mg/kg and 35-40 mg/kg, respectively. The abdomen and the cervical area was then shaved. A surgical cutdown was performed to place a catheter into the jugular vein for maintaining anesthesia throughout the entire exposure period. The maintenance anesthesia was sodium pentobarbitol given at 13 mg/kg as needed. An endotracheal tube was then inserted to facilitate normal respiration.
In the anesthetized animal model a section of the colon, immediately proximal to the cecum, was isolated with the mesenteric vascular system intact. Two ligatures were placed approximately 15-20 cm apart around the colon section. The isolated section was then freed from the remaining intestine by cutting between the ligatures, taking care to leave the vascular and nervous systems intact. A longitudinal incision was made along the entire length of the isolated colon section and the fecal material removed. The isolated colon section is then placed onto a three-cell test chamber which forms the floor of the test cell. The test cell is continuously perfused with Lactated Ringer's solution at a rate of 2.2 ml per minute using a Model 975 Harvard pump. The test chamber is allowed to equilibrate for one hour to maintain a constant temperature of 37° C. (±2° C.). […]
A quantity of the test material was chosen such that the total milligram amount of aspirin delivered over the 6-hour exposure period was equal to the total dose of aspirin provided by the positive control.
After 6 hours of continuous exposure, each rabbit was euthanized using an intravenous injection of sodium pentobarbitol given at approximately 100 mg/kg. The isolated section of exposed colon was removed from the intestine and evaluated for macroscopic evidence of irritation for both degree (0-4) and area (0-6.40 cm^2). […]

As to `CC(=O)Oc1ccccc1C(=O)O` [Aspirin, aspirin], the “Mean Irritation Area” value is on record as 4.48 cm^2, the “Mean Irritation Index” value was found to be 17.93 and the “Mean Irritation Source” value turned out to be 4.00.
